ChEMBL document CHEMBL1137029, “Substituted benzylamino-6-(trifluoromethyl)pyrimidin-4(1H)-ones: a novel class of selective human A-FABP inhibitors” (Bioorg Med Chem Lett, 2004)

Target: Fatty acid-binding protein, heart (Homo sapiens, UniProt P05413)
Sequence (P05413 whole entry): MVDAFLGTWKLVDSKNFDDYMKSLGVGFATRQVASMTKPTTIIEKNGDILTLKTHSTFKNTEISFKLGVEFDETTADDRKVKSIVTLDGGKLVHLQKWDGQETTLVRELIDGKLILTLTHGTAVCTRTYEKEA

| IC50 | Compound |
| --- | --- |
| > 100 µM | Oc1cc(C(F)(F)F)nc(NCc2ccc(Cl)cc2)n1 |
| > 100 µM | CN(Cc1ccccc1)c1nc(C(F)(F)F)cc(=O)[nH]1 |
